Source: ChEMBL document CHEMBL2074335, “Cloning and functional characterization of the multidrug resistance-associated protein (MRP1/ABCC1) from the cynomolgus monkey” (Mol Cancer Ther, 2003)

molecular target: Multidrug resistance-associated protein 1 (Homo sapiens, UniProt P33527); assay: TP_TRANSPORTER: drug resistance in MRP1-expressing PEAKSTABEL cells; format: functional, cell-based; conditions: peakstable
Sequence (P33527 whole entry): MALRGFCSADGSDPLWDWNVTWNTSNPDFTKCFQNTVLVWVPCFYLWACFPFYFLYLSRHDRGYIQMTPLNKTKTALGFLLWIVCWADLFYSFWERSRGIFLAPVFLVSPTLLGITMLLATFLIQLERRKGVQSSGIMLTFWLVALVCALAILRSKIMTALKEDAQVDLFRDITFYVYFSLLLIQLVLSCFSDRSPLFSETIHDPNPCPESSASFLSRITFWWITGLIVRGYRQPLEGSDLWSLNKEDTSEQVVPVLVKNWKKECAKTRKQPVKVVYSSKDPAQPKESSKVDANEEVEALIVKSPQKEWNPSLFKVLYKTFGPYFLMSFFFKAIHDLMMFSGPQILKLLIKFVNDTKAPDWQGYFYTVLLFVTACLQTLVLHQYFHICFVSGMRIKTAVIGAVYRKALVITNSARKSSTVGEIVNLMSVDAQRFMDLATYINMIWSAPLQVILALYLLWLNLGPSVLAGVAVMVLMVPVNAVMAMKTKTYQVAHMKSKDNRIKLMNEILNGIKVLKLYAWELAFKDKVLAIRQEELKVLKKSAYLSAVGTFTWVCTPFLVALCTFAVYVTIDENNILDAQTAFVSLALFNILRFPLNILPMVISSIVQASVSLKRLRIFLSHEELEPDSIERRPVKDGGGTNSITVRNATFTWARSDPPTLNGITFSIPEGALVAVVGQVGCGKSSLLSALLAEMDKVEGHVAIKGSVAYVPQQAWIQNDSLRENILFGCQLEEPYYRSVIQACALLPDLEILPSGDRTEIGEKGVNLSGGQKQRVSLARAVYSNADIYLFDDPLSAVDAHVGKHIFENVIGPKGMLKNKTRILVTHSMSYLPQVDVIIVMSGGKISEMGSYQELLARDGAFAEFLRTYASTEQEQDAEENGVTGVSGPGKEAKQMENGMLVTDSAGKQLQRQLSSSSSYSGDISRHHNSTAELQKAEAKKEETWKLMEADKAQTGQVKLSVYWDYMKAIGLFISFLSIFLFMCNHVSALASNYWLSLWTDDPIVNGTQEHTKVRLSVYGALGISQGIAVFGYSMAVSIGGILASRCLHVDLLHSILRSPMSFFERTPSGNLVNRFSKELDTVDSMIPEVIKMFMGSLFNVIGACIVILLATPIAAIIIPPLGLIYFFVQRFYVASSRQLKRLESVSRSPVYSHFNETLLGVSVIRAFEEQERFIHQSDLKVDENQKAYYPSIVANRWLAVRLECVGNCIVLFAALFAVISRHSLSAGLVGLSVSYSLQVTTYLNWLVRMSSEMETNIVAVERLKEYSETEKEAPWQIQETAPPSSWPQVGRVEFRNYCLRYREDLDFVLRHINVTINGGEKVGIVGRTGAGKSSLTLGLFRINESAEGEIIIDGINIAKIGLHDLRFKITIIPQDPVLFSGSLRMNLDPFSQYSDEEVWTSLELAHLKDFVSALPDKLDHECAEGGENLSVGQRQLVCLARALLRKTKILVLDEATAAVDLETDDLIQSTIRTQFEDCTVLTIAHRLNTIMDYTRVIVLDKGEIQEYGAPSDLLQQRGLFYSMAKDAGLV

**Q.** How did the Activity turn out when COc1cc([C@@H]2c3cc4c(cc3[C@@H](O[C@@H]3O[C@@H]5CO[C@@H](C)O[C@H]5[C@H](O)[C@H]3O)[C@H]3COC(=O)[C@H]23)OCO4)cc(OC)c1O [ETOPOSIDE] was run?
**A.** The Activity was “substrate []”.

**Q.** With COc1cc(NC(=O)Cc2cccc(-n3c(=O)c4c(C)onc4c4c(Cl)cccc43)c2)cc(OC)c1OC as the compound, how does the Activity read?
**A.** The Activity was “inhibitor []”.

**Q.** CC[C@]1(O)C[C@H]2CN(CCc3c([nH]c4ccccc34)[C@@](C(=O)OC)(c3cc4c(cc3OC)N(C=O)[C@H]3[C@@](O)(C(=O)OC)[C@H](OC(C)=O)[C@]5(CC)C=CCN6CC[C@]43[C@@H]65)C2)C1 [VINCRISTINE] was tested. Which Activity did it give?
**A.** The Activity was “substrate []”.

**Q.** How did the Activity turn out when COc1cccc2c1C(=O)c1c(O)c3c(c(O)c1C2=O)C[C@@](O)(C(=O)CO)C[C@@H]3O[C@H]1C[C@H](N)[C@H](O)[C@H](C)O1 [DOXORUBICIN] was run?
**A.** The Activity was “substrate []”.

**Q.** For COc1cccc2c1C(=O)c1c(O)c3c(c(O)c1C2=O)C[C@@](O)(C(=O)CO)C[C@@H]3O[C@H]1C[C@H](N)[C@@H](O)[C@H](C)O1 [EPIRUBICIN], which Activity is on record?
**A.** The Activity was “substrate []”.
